Test results published in ChEMBL document CHEMBL1201862, “PubChem BioAssay data set” (2004).
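Exposure lasted 48 hours, with cells grown in 96-well plates and compounds tested at five concentrations. GI50 marks 50% less growth.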 The source made the active and inactive calls. Rule as the data show it: active = GI50 up to about 1.1 µM and inactive = higher.

Experiments:
Assay in all cases: inhibition of tumour cell growth, NCI panel, 48 h
A498 = test system: A498
CAKI-1 = test system: CAKI-1
HCT-15 = test system: HCT-15
HOP-92 = test system: HOP-92
K562 = test system: K562
LOX IMVI = test system: LOX IMVI
MOLT-4 = test system: MOLT-4
Malme-3M = test system: Malme-3M
NCI-H23 = test system: NCI-H23
RXF 393 = test system: RXF 393
SF-268 = test system: SF-268
SK-MEL-28 = test system: SK-MEL-28
SN12C = test system: SN12C
SNB-19 = test system: SNB-19
SR = test system: SR
U-251 = test system: U-251
UACC-257 = test system: UACC-257
UO-31 = test system: UO-31

Row | SMILES | GI50 (A498) | GI50 (CAKI-1) | GI50 (HCT-15) [µM] | GI50 (HOP-92) | GI50 (K562) | GI50 (LOX IMVI) | GI50 (MOLT-4) | GI50 (Malme-3M) | GI50 (NCI-H23) | GI50 (RXF 393) | GI50 (SF-268) | GI50 (SK-MEL-28) | GI50 (SN12C) | GI50 (SNB-19) | GI50 (SR) | GI50 (U-251) | GI50 (UACC-257) | GI50 (UO-31)
1 | NS(=O)(=O)c1ccc(NC(=O)COC(=O)c2cccc3c(=O)c4ccccc4[nH]c23)cc1 | 17.9 µM (inactive) | > 52.5 µM (inactive) | 53.5 | 16.5 µM (inactive) | > 100 µM (inactive) | 13.6 µM (inactive) | 14.3 µM (inactive) | 17.9 µM (inactive) | 21.4 µM (inactive) | 17.5 µM (inactive) | 15.9 µM (inactive) | 50.8 µM (inactive) | 24 µM (inactive) | 17 µM (inactive) | 4.03 µM (inactive) | 14.4 µM (inactive) | 57.3 µM (inactive) | 23.3 µM (inactive)
2 | C[P+]1(Cc2ccccc2)CCCC1 | > 100 µM (inactive) | – | > 100 | – | > 100 µM (inactive) | > 100 µM (inactive) | > 100 µM (inactive) | 62.8 µM (inactive) | > 100 µM (inactive) | > 100 µM (inactive) | – | > 100 µM (inactive) | > 100 µM (inactive) | > 100 µM (inactive) | > 100 µM (inactive) | > 100 µM (inactive) | > 100 µM (inactive) | > 100 µM (inactive)
3 | Nc1nc(-c2ccccc2)cc(-c2cc(Cl)ccc2O)n1 | > 100 µM (inactive) | 74.5 µM (inactive) | > 100 | > 100 µM (inactive) | > 100 µM (inactive) | 54 µM (inactive) | > 100 µM (inactive) | > 100 µM (inactive) | 45.7 µM (inactive) | 64.3 µM (inactive) | 49.4 µM (inactive) | > 100 µM (inactive) | > 100 µM (inactive) | 53.8 µM (inactive) | > 100 µM (inactive) | 35.6 µM (inactive) | > 100 µM (inactive) | 39.9 µM (inactive)
4 | COc1cc(OC)cc(C(=O)Cc2c(C(=O)c3ccccc3)c3ccccc3n2C(=O)c2ccccc2)c1 | 13.2 µM (inactive) | 50.5 µM (inactive) | 31.3 | 3.78 µM (inactive) | 16.7 µM (inactive) | 31.8 µM (inactive) | 9.4 µM (inactive) | 38.5 µM (inactive) | 14.4 µM (inactive) | 43.6 µM (inactive) | 65.3 µM (inactive) | 34.4 µM (inactive) | 43.8 µM (inactive) | 11.3 µM (inactive) | 14.2 µM (inactive) | 20.2 µM (inactive) | – | 24.4 µM (inactive)
5 | O=C1C=CC(=O)N1Nc1ccc([N+](=O)[O-])cc1[N+](=O)[O-] | 62.1 µM (inactive) | > 47.9 µM (inactive) | > 74.1 | > 49.1 µM (inactive) | > 42.4 µM (inactive) | > 100 µM (inactive) | 33.3 µM (inactive) | 16.8 µM (inactive) | > 100 µM (inactive) | – | > 100 µM (inactive) | > 43.4 µM (inactive) | > 100 µM (inactive) | > 100 µM (inactive) | > 38.5 µM (inactive) | > 100 µM (inactive) | > 56.2 µM (inactive) | > 100 µM (inactive)
6 | CC(C)CN(CC(C)C)C(=O)C1CCCC[C@@H]1C(=O)O (some centres undefined) | > 100 µM (inactive) | > 100 µM (inactive) | > 100 | > 100 µM (inactive) | > 100 µM (inactive) | > 100 µM (inactive) | > 100 µM (inactive) | > 100 µM (inactive) | > 100 µM (inactive) | – | > 100 µM (inactive) | > 100 µM (inactive) | > 100 µM (inactive) | – | > 100 µM (inactive) | > 100 µM (inactive) | > 100 µM (inactive) | > 100 µM (inactive)
7 | O=C(/C=C/c1cccc([N+](=O)[O-])c1)c1ccc([N+](=O)[O-])cc1 | > 100 µM (inactive) | > 100 µM (inactive) | > 100 | – | > 100 µM (inactive) | > 100 µM (inactive) | > 100 µM (inactive) | > 100 µM (inactive) | > 100 µM (inactive) | > 100 µM (inactive) | > 100 µM (inactive) | > 100 µM (inactive) | > 100 µM (inactive) | > 100 µM (inactive) | > 100 µM (inactive) | > 100 µM (inactive) | > 100 µM (inactive) | > 100 µM (inactive)
8 | COc1ccccc1NC(=O)CC(=O)n1nc(-c2ccccc2)c(/N=N/c2ccccc2[N+](=O)[O-])c1-c1ccccc1 | – | > 100 µM (inactive) | – | 81.7 µM (inactive) | 80.7 µM (inactive) | > 100 µM (inactive) | 64.7 µM (inactive) | > 100 µM (inactive) | 98.4 µM (inactive) | 44.7 µM (inactive) | 95.3 µM (inactive) | 30 µM (inactive) | > 100 µM (inactive) | > 100 µM (inactive) | > 100 µM (inactive) | 56.5 µM (inactive) | > 100 µM (inactive) | 38.4 µM (inactive)
9 | O=C(COc1ccc(Cl)cc1)N1N=C(c2ccc(Cl)cc2)CC1(O)c1ccccc1 (centres undefined) | 13.5 µM (inactive) | 20.9 µM (inactive) | 13.1 | 21.5 µM (inactive) | 9.73 µM (inactive) | 12.6 µM (inactive) | 4.95 µM (inactive) | 20.2 µM (inactive) | 13.1 µM (inactive) | – | > 43.9 µM (inactive) | 18.2 µM (inactive) | 5 µM (inactive) | 20.3 µM (inactive) | 3.69 µM (inactive) | 16.7 µM (inactive) | 15.8 µM (inactive) | > 23.7 µM (inactive)
10 | COc1ccc(CCCN2c3ccccc3Sc3ccccc32)cc1 | > 100 µM (inactive) | > 100 µM (inactive) | 27.9 | > 100 µM (inactive) | 17.3 µM (inactive) | 52.8 µM (inactive) | 19.6 µM (inactive) | > 100 µM (inactive) | > 100 µM (inactive) | > 100 µM (inactive) | > 100 µM (inactive) | > 100 µM (inactive) | > 100 µM (inactive) | > 100 µM (inactive) | – | > 100 µM (inactive) | > 100 µM (inactive) | > 100 µM (inactive)
11 | CC(=O)C1C(=O)NC(=O)C1=O (centres undefined) | > 100 µM (inactive) | > 100 µM (inactive) | > 100 | > 100 µM (inactive) | > 100 µM (inactive) | > 100 µM (inactive) | – | > 100 µM (inactive) | > 100 µM (inactive) | > 100 µM (inactive) | > 100 µM (inactive) | > 100 µM (inactive) | > 100 µM (inactive) | > 100 µM (inactive) | – | > 100 µM (inactive) | > 100 µM (inactive) | > 100 µM (inactive)
12 | N#Cc1ccc(C2OCC3CC=CCC3CO2)cc1 (centres undefined) | – | > 100 µM (inactive) | 61.2 | – | 30.9 µM (inactive) | 94.6 µM (inactive) | 2.97 µM (inactive) | > 100 µM (inactive) | 36.3 µM (inactive) | 54.3 µM (inactive) | > 100 µM (inactive) | 78.5 µM (inactive) | > 100 µM (inactive) | > 100 µM (inactive) | 36.1 µM (inactive) | 76.7 µM (inactive) | 42.7 µM (inactive) | > 100 µM (inactive)
13 | Clc1ccc2c(c1)[nH]c1c2nc2sccn21 | > 100 µM (inactive) | > 100 µM (inactive) | > 100 | > 100 µM (inactive) | > 100 µM (inactive) | > 100 µM (inactive) | > 100 µM (inactive) | > 100 µM (inactive) | > 100 µM (inactive) | > 100 µM (inactive) | > 100 µM (inactive) | > 100 µM (inactive) | > 100 µM (inactive) | > 100 µM (inactive) | > 100 µM (inactive) | > 100 µM (inactive) | > 100 µM (inactive) | > 100 µM (inactive)
14 | CCOc1ccc(/N=N/c2c(-c3ccccc3)nn(C(=O)CC(=O)Nc3cccc(C)c3)c2-c2ccccc2)cc1 | – | > 100 µM (inactive) | – | > 100 µM (inactive) | 38.8 µM (inactive) | > 100 µM (inactive) | > 100 µM (inactive) | > 100 µM (inactive) | > 100 µM (inactive) | 57.9 µM (inactive) | 39 µM (inactive) | > 100 µM (inactive) | > 100 µM (inactive) | > 100 µM (inactive) | > 100 µM (inactive) | 56.2 µM (inactive) | > 100 µM (inactive) | 17.7 µM (inactive)
15 | C[P+](C)(C)C | – | > 100 µM (inactive) | > 100 | > 100 µM (inactive) | > 100 µM (inactive) | > 100 µM (inactive) | > 100 µM (inactive) | > 100 µM (inactive) | > 100 µM (inactive) | > 100 µM (inactive) | > 100 µM (inactive) | > 100 µM (inactive) | > 100 µM (inactive) | > 100 µM (inactive) | > 100 µM (inactive) | > 100 µM (inactive) | > 100 µM (inactive) | > 100 µM (inactive)
16 | COC(=O)CC(=O)NCC1=CCC(=O)CC1 | > 100 µM (inactive) | > 100 µM (inactive) | > 100 | > 100 µM (inactive) | > 100 µM (inactive) | > 100 µM (inactive) | > 100 µM (inactive) | > 100 µM (inactive) | > 100 µM (inactive) | > 100 µM (inactive) | > 100 µM (inactive) | > 100 µM (inactive) | > 100 µM (inactive) | > 100 µM (inactive) | – | > 100 µM (inactive) | > 100 µM (inactive) | > 100 µM (inactive)
17 | COc1ccc(/C=C(\Cl)c2ccc(OC)cc2)cc1 | > 100 µM (inactive) | > 100 µM (inactive) | – | > 100 µM (inactive) | > 100 µM (inactive) | > 100 µM (inactive) | > 100 µM (inactive) | > 100 µM (inactive) | > 100 µM (inactive) | – | > 100 µM (inactive) | > 100 µM (inactive) | > 100 µM (inactive) | > 100 µM (inactive) | > 100 µM (inactive) | > 100 µM (inactive) | > 100 µM (inactive) | > 100 µM (inactive)
